Data: PubChem BioAssay AID2423 (Broad Institute, 2010)
Inconclusive results are not listed. Calls of active or inactive are those of the source. The rule behind the calls is not given here.

tested on: C. albicans CaCi-8 + fluconazole, Alamar Blue growth, 48 h; test: resistant C. albicans growth inhibition with fluconazole, dose response, CaCi-8 strain, Alamar Blue fluorescence (AID 2423)

| Compound | EC50 |
| --- | --- |
| CCC(C)(C)c1ccc(OCCCC[n+]2cccc(C)c2C)c(C(C)(C)CC)c1 | > 16 µM (inactive) |
| Cc1cccc(C(=O)NNC(=S)NC(=O)c2cccs2)c1 | 1.46 µM |
| Oc1c(Br)cc(Br)cc1Oc1ccc(Br)cc1Br | 1.76 µM |
